US7754272B2, “Local drug delivery” (Biocompatibles IK Limited, priority 1999, dated 2010)
≈ marks a conversion by molar mass, not a printed value. Values belong to the compound of their own block, whether it stands above or below them.

Experiments:
[1] = cited from earlier work
[2] = Drug loading of HEMA-PC:HEMA:MMA:MBA crosslinked membrane; type: physicochemical; details: HEMA-PC:HEMA:MMA:MBA copolymer swollen in aqueous drug solution, room temperature, over night
From the text: The polymers including MBA were polymerised in situ to form crosslinked membranes. […] The crosslinked polymers were used to form “infinite slabs” type membranes, to simulate the coating on a stent. […] The loaded levels were established to be the following: […]

[3] = Vitamin B12 loading of MBA-crosslinked HEMA-PC:LM polymers; type: physicochemical
Description: Polymers based on HEMA-PC:LM 1:2 with varying degrees of MBA crosslinker were tested to determine the effect of crosslinker on release of vitamin B12. The polymers were also tested for their water content when swollen to equilibrium in water at 37° C. The loading levels of vitamin B12 are recorded in table 2 below.
Also recorded in table 2 are similar results for MBA crosslinked copolymers based upon 1:1 copolymers of HEMA-PC and LM.

[4] = Aspirin loading and release, pre-coated stents; type: physicochemical; details: for aspirin loaded: 15 mm stent, one hour, room temperature
From the text: Aspirin has anti platelet activity, which may be useful delivered locally from a stent. […] The solutions were used to load 15 mm stents having coatings produced according to Reference Example 1 (interior wall coating thickness around 350 nanometers, exterior wall coating thickness around 1400 nanometers). The stents were immersed in the aspirin solutions at room temperature for a period of one hour. The stent was removed from the solution, excess solution removed by gentle dabbing with absorbent tissue. Aspirin loading levels were determined by extracting the aspirin into 3 ml ethanol.

[5] = In vivo porcine coronary artery model, angiopeptin loaded stents
Description: Further work was conducted to investigate the ability of the angiopeptin loaded stents to deliver angiopeptin tissue in an in vivo, in a porcine coronary artery model. […] The levels of angiopeptin remaining in the arterial wall immediately surrounding the stent was determined as well as the level recovered in blood and urine.

[6] = Ex vivo human saphenous vein model, angiopeptin loaded stents
Description: More extensive work was conducted on angiopeptin loaded stents, to mimic the in vivo environment. The further examples use an ex vivo human saphenous vein model (as described by Armstrong, J. et al 1998. A purfused organ culture model to investigate drug release from coronary stents, Northern General Hospital, Sheffield (in press). The stents (produced as in Reference Example 1 below) were loaded using aqueous solutions of angiopeptin labeled with ^125I by the chloramine T method, into which the stent was dipped for half an hour at 37 C. The loaded stents were then allowed to air dry for one hour. Stents were in inserted into the vein, expanded by balloon catheter, washed in 10 ml culture medium for 10 s then placed in the purpose-built organ culture chamber bathed in 30 ml culture medium. The chamber was then connected to a circuit and 100 ml culture medium (HEPES-buffered RPMI 1640 culture medium (LIFE) supplemented with penicillin ([…]) streptomycin (100 units/ml) and glutamine (2 mM)) at 70 ml/min, then removed after 1 hour or 24 hours. The stent was subsequently examined to determine the proportion of angiopeptin which has eluted, whilst the vessel immediately surrounding the stent was investigated to determine the proportion of eluted drug found in the vessel. The culture medium was also analysed as was the explanted stent for radio activity.

[7] = Dexamethasone phosphate and dexamethasone loading and elution, pre-coated stents; details: for loading per stent: 20 C., 30 minutes
[8] = Roxithromycin loading and release, pre-coated stents; type: physicochemical
Description: Stents coated with polymer according to Reference Example 1 (15 mm) were loaded with roxithromycin from 5 g/l and 10 g/l solutions in ethanol or in ethanol:water 50:50 mixture. The level of loading of drug onto the stent was determined by elution from the stent into ethanol. […] The average loading for the 5 g/l solution was 58 μg per stent, whilst the 10 g/l solutions lead to loadings of around 70 μg for both solvent systems.
Stents loaded from the 10 g/l ethanolic solutions were subsequently contacted with phosphate buffered saline under gentle agitation and the release rate determined. […] The test was continued up to 48 hours, after which time 5 to 10% of roxithromycin remains in the coating.

[9] = Taxol loading of cross-linked polymer discs; type: physicochemical
Description: Polymers of the same compositions as used in example 8 are tested for taxol (paclitaxel) loading. Twenty discs were cut out of each membrane of polymer, placed on pieces of PTFE in petri dishes and dried in an oven at 60° C. for an hour. When cool the discs were placed into a solution of taxol and allowed to swell in a water bath at 37° C. for half an hour. The taxol solution was decanted off, the discs labelled and placed on the PTFE and allowed to air dry. The discs were then tested for determining total loadings.

[10] = Etoposide/polymer premix coated stents, loading and release; type: physicochemical
Description: In this example, rather than precoating the polymer according to reference Example 1, followed by loading of drug, a premix of drug and crosslinkable polymer is formed and coated onto a stent. The crosslinkable polymer is identical to that used in Reference Example 1, 0.932 g polymer being dissolved into a 1:1 ethanol:water (by volume) mixture (50 ml). […] The coated stents were cured overnight at a temperature in the range 50 to 70 C.
The amount of drug loaded into the stents was determined by elution into an ethanol:water 50:50 (volume) mixture. […] The amount of etoposide eluted into ethanol:water is in this range.
The release rate, from the results, for the stent coated with a polymer crosslinked in the presence of drug indicate that the release of drug may not be slowed down as compared to the alternative system, where precoated stents are contacted with a solution of drug.

Compound: CO[C@H]1C[C@@H]2CC[C@@H](C)[C@@](O)(O2)C(=O)C(=O)N2CCCC[C@H]2C(=O)O[C@H]([C@H](C)C[C@@H]2CC[C@@H](O)[C@H](OC)C2)CC(=O)[C@H](C)/C=C(\C)[C@@H](O)[C@@H](OC)C(=O)[C@H](C)C[C@H](C)/C=C/C=C/C=C/1C [Rapamycin]
solubility in water [1]: 5 µg/mL (≈ 5.47 µM)

Loading (mg/g polymer) [2]: 85 mg/g polymer
Compound: rhodamine

Loading (mg/g polymer) [2]: 40 mg/g polymer | Vitamin B12 Load (mg/g polymer) ([3]; HEMA-PC:LM 1:1, crosslinker 0.28 mole %): 26.13 mg/g polymer | Vitamin B12 Load (mg/g polymer) ([3]; HEMA-PC:LM 1:1, crosslinker 0.5 mole %): 19.83 mg/g polymer | Vitamin B12 Load (mg/g polymer) ([3]; HEMA-PC:LM 1:1, crosslinker 1 mole %): 11.89 mg/g polymer | Vitamin B12 Load (mg/g polymer) ([3]; HEMA-PC:LM 1:1, crosslinker 2 mole %): 8.44 mg/g polymer | Vitamin B12 Load (mg/g polymer) ([3]; HEMA-PC:LM 1:1, crosslinker 5 mole %): 4.94 mg/g polymer | Vitamin B12 Load (mg/g polymer) ([3]; HEMA-PC:LM 1:2, crosslinker 0.28 mole %): 11.73 mg/g polymer | Vitamin B12 Load (mg/g polymer) ([3]; HEMA-PC:LM 1:2, crosslinker 0.5 mole %): 10.68 mg/g polymer | Vitamin B12 Load (mg/g polymer) ([3]; HEMA-PC:LM 1:2, crosslinker 1 mole %): 11.4 mg/g polymer | Vitamin B12 Load (mg/g polymer) ([3]; HEMA-PC:LM 1:2, crosslinker 2 mole %): 4.66 mg/g polymer | Vitamin B12 Load (mg/g polymer) ([3]; HEMA-PC:LM 1:2, crosslinker 5 mole %): 1.96 mg/g polymer | Vitamin B12 Load (mg/g polymer) ([3]; HEMA-PC:LM 1:2, crosslinker 10 mole %): 0 mg/g polymer
Compound: vitamin B12

aspirin loaded ([4]; 10 g/l in ethanol): around 10 μg | aspirin loaded ([4]; 40 g/l in ethanol): around 40 μg | share of drug eluted ([4]; into phosphate buffered saline, after about 1 hour): around 90%
Compound: CC(=O)Oc1ccccc1C(=O)O [aspirin, Aspirin]
solubility in water [1]: only partially soluble in water

Compound: CC(C)[C@@H]1NC(=O)[C@H](CCCCN)NC(=O)[C@@H](Cc2c[nH]c3ccccc23)NC(=O)[C@H](Cc2ccc(O)cc2)NC(=O)[C@@H](NC(=O)[C@H](N)Cc2ccc3ccccc3c2)CSSC[C@@H](C(=O)N[C@H](C(N)=O)[C@@H](C)O)NC1=O [angiopeptin]
share of detected angiopeptin located in tissue other than the heart ([5]; 1 to 28 days): less than 1% | angiopeptin in blood ([5]; after 5 min): 0.08 µg/mL | angiopeptin in urine ([5]; after 1 hour): 0.29 µg/mL | share of angiopeptin remaining on the stent ([5]; after 1 hour): 9% | angiopeptin in blood ([5]; after 24 hours): around 0.01 μg/ml | share of angiopeptin remaining on the stent ([5]; after 24 hours): 4% | share of angiopeptin remaining on the stent ([5]; after 7 days): 1.5% | angiopeptin in urine ([5]; after 28 days): 0.01 µg/mL | angiopeptin in blood compared with 5 min ([5]; after one hour): about the same | level of angiopeptin in tissue ([5]; arterial wall surrounding the stent, after 24 hours): around 400 pg/ml | angiopeptin in blood ([5]; at 7 to 28 days): No angiopeptin could be found | share of released angiopeptin localised in the left anterior descending coronary artery ([5]; at 1 hour): 84% | level of angiopeptin in tissue ([5]; at 7 days): around 360 pg/ml | level of angiopeptin in tissue ([5]; at 28 days): around 200 pg/ml | share of angiopeptin eluted from stent ([6]; after 1 hour): 93% | share of eluted drug in the surrounding vessel ([6]; after 1 hour): 13.9% | share of angiopeptin eluted from stent ([6]; after 24 hours): 97% | share of eluted drug remaining in the vessel ([6]; after 24 hours): 7.4%

loading per stent ([7]; 1.0 g/l in water): 9 μg per stent | loading per stent ([7]; 2.0 g/l in water): 14 µg | loading per stent ([7]; 5.0 g/l in water): 20 µg | time by which effectively all the drug is released ([7]; elution test): ≤ 1 h
Compound: C[C@@H]1C[C@H]2[C@@H]3CCC4=CC(=O)C=C[C@]4(C)[C@@]3(F)[C@@H](O)C[C@]2(C)[C@@]1(O)C(=O)COP(=O)(O)O [dexamethasone phosphate, Dexamethasone phosphate]

average loading ([8]; 15 mm stent, 5 g/l solution): 58 μg per stent | loading ([8]; 15 mm stent, 10 g/l solutions, ethanol and ethanol:water 50:50): around 70 μg | share of compound released ([8]; PBS, gentle agitation, after 24 hours, loaded from 10 g/l ethanolic solution): around half
Compound: CC[C@H]1OC(=O)[C@H](C)[C@@H](O[C@H]2C[C@@](C)(OC)[C@@H](O)[C@H](C)O2)[C@H](C)[C@@H](O[C@@H]2O[C@H](C)C[C@H](N(C)C)[C@H]2O)[C@](C)(O)C[C@@H](C)/C(=N\OCOCCOC)[C@H](C)[C@@H](O)[C@]1(C)O [roxithromycin, Roxithromycin]
solubility in water [1]: substantially insoluble in water

Total Loading (μg per disc) ([9]; Series 1, 1st polymer (Table 4 HEMA-PC:LM:Hpm:TMSPM 13:39:15:5)): 35.2 μg per disc | Total Loading (μg per disc) ([9]; Series 1, 2nd polymer (Table 4 53:39:15:5)): 80 μg per disc | Total Loading (μg per disc) ([9]; Series 1, 3rd polymer (Table 4 13:55:15:5)): 15 μg per disc | Total Loading (μg per disc) ([9]; Series 1, 4th polymer (Table 4 33:55:15:5)): 18.1 μg per disc | Total Loading (μg per disc) ([9]; Series 2, 1st polymer (Table 4 13:39:15:9)): 51.7 μg per disc | Total Loading (μg per disc) ([9]; Series 2, 2nd polymer (Table 4 33:39:15:9)): 57 μg per disc | Total Loading (μg per disc) ([9]; Series 2, 3rd polymer (Table 4 13:55:15:9)): 18.6 μg per disc | Total Loading (μg per disc) ([9]; Series 2, 4th polymer (Table 4 33:55:15:9)): 10 μg per disc | Total Loading (μg per disc) ([9]; Series 3, 1st polymer (Table 4 13:39:35:5)): 55.2 μg per disc | Total Loading (μg per disc) ([9]; Series 3, 2nd polymer (Table 4 33:39:35:5)): 11.2 μg per disc | Total Loading (μg per disc) ([9]; Series 3, 3rd polymer (Table 4 13:55:35:5)): 5.4 μg per disc | Total Loading (μg per disc) ([9]; Series 3, 4th polymer (Table 4 33:55:35:5)): 25.3 μg per disc | Total Loading (μg per disc) ([9]; Series 4, 1st polymer (Table 4 13:39:35:9)): 23.8 μg per disc | Total Loading (μg per disc) ([9]; Series 4, 2nd polymer (Table 4 33:39:35:9)): 60.5 μg per disc | Total Loading (μg per disc) ([9]; Series 4, 3rd polymer (Table 4 13:55:35:9)): 24.3 μg per disc | Total Loading (μg per disc) ([9]; Series 4, 4th polymer (Table 4 33:55:35:9)): 64 μg per disc
Compound: CC(=O)O[C@H]1C(=O)[C@@]2(C)[C@H]([C@H](OC(=O)c3ccccc3)[C@]3(O)C[C@H](OC(=O)[C@H](O)[C@@H](NC(=O)c4ccccc4)c4ccccc4)C(C)=C1C3(C)C)[C@]1(OC(C)=O)CO[C@@H]1C[C@@H]2O [taxol, paclitaxel]

Compound: C[C@@H]1C[C@H]2[C@@H]3CCC4=CC(=O)C=C[C@]4(C)[C@@]3(F)[C@@H](O)C[C@]2(C)[C@@]1(O)C(=O)CO [dexamethasone, Dexamethasone]
solubility in water [1]: less water soluble than dexamethasone phosphate

time at which release plateaued ([10]; into 5 ml phosphate buffered saline): around 5 minutes | average etoposide loading ([10]; premix coated stent, eluted into ethanol:water 50:50): around 12 μg per stent
Compound: COc1cc([C@@H]2c3cc4c(cc3[C@@H](O[C@@H]3O[C@@H]5CO[C@@H](C)O[C@H]5[C@H](O)[C@H]3O)[C@H]3COC(=O)[C@H]23)OCO4)cc(OC)c1O [etoposide]
solubility in water [1]: only slightly soluble in water
